For data set [1], the system named is L. mexicana amazonensis promastigotes. The data set is described as follows: In vitro activity against Leishmania promastigotes (amazonensis). Type of data set: cell-based. More on the design: CP100: unit not given here. The settings on record: for IC50: Leishmania mexicana, mean inhibitory concentration, read-out: CI50 (the source's name); for CP100: minimal parasiticidal concentration abolishing motility of all parasites. As for the experimental part:
(§1) Mean inhibitory concentrations (Cl50%) against L. mexicana amazonensis, L. donovani infantum and L. braziliensis braziliensis promastigotes were determined according to the method described by Bodley A L et al (J Infect Dis 1995; 172(4):1157-9.). Minimal parasiticidal concentrations (CP100, minimal concentrations capable of abolishing the motility of all parasites in the culture) were also determined. Amphotericin B and Glucantime® were tested as reference drugs.

The subject of data set [2] is L. braziliensis braziliensis promastigotes. Briefly: In vitro activity against Leishmania promastigotes (braziliensis). Type of data set: cell-based. On the set-up: CP100: unit not given here. The settings on record: for IC50: Leishmania braziliensis, mean inhibitory concentration, read-out: CI50 (the source's name); for CP100: minimal parasiticidal concentration. As for the experimental part:
as §1

Data set [3] concerns L. donovani infantum promastigotes. The data set is described as follows: In vitro activity against Leishmania promastigotes (infantum). The data set is classed as cell-based. More on the design: CP100: unit not given here. As to conditions: for IC50: Leishmania donovani, mean inhibitory concentration, read-out: CI50 (the source's name); for CP100: minimal parasiticidal concentration. As for the experimental part:
as §1

For data set [4], the system named is trypomastigotes of T. cruzi. Briefly: In vitro activity against Trypanosoma cruzi. Type of data set: cell-based. The settings on record: for IC50: Trypanosoma cruzi, T. cruzi trypomastigotes grown in rat myoblast cell line, read-out: CI50 (the source's name); for CP100: minimal concentration that immobilizes all parasites. As for the experimental part: The in vitro activity of the β-nitrovinylfuran derivatives was tested against trypomastigotes of T. cruzi grown in a rat myoblast cell line. Minimal parasiticidal concentrations (minimal concentration that immobilizes all the parasites in the culture) and mean inhibitory concentrations (concentration that reduces the number of parasites to 50% of those found in the un-treated control cultures) were determined according to Buckner's method (Antimicrob Agents Chemother 1996; 40(11):2592-7).

Data set [5] in a line: Toxicological studies (LD50, LD0, MTD), intraperitoneal. Type of data set: in vivo, female Balb/c mice. As to conditions: for MTD at 14 days: female, Balb/c, repeated intraperitoneal administration every 24 h during 14 days, read-out: MTD (every 24 h); for LD0: maximal non-lethal dose calculated from dose-mortality curves, single i.p. injection; for LD50: single intraperitoneal injection, female Balb/c mice. As for the experimental part: The same animal model used for in vivo anti-leishmanial tests was used to perform comparative toxicological studies of the β-nitrovinylfuran derivatives. The main excipient of the compositions used with this purpose was the sunflower oil. The mean lethal doses (LD50) of each β-nitrovinylfuran derivative and Amphotericin B were estimated in female Balb/c mice (18-20g body weight), treated by a single intraperitoneal injection. The maximal non-lethal doses (LD0) were calculated from the dose-mortality curves. The maximal tolerated doses (MTD, maximal dose causing neither mortality nor body weight losses over 10% respect to the initial weight) by repeated intraperitoneal administration every 12 or 24 h during 14 days were determined as well.

For data set [6], the system named is L. m. amazonensis. The data set is described as follows: Experimental cutaneous leishmaniosis, early stage lesions treated every 24 h. The data set is classed as in vivo, Balb/c mice. As for the experimental part: (§2) Balb/c mice were experimentally infected with L. m. amazonensis promastigotes by intradermal injection in the footpads and six weeks later they were treated with the test compounds by intraperitoneal route. The product 2-bromo-5-(2-bromo-2-nitrovinyl)-furan was administered at a dose of 5 mg/Kg; the 2-bromo-5-(2-methyl-2-nitrovinyl)-furan, at 50 mg/Kg and Amphotericin B, at 1 mg/Kg. Animals were daily dosed for 14 days. Miglyol 810, the vehicle used for the β-nitrovinylfuran derivatives, was similarly administered to a group of mice.

For data set [7], the system named is L. m. amazonensis. The data set is described as follows: Experimental cutaneous leishmaniosis, chronic lesions treated every 12 h. Type of data set: in vivo, Balb/c mice. As to conditions: for effectiveness on chronic lesions: first week, F 50 mg/Kg twice a day, Amphotericin B 5 mg/Kg every other day. As for the experimental part: Mice developed chronic leishmanial lesions at eighteen weeks post-infection. Lesions were ulcerated and covered with a thick crust. The average dorso-plantar diameter of the infected foot was 1.23±0.24 cm and the lateral diameter was 1.24±0.19 cm. At that stage the treatment started twice a day with either 2-bromo-5-(2-bromo-2-nitrovinyl)-furan at 2 mg/Kg; 2-bromo-5-(2-methyl-2-nitrovinyl)-furan at 50 mg/Kg or Amphotericin B at 5 mg/Kg every other day. A control group formed by infected non-treated mice was also included in the experiment. All drugs were administered by intraperitoneal route for 14 days. […] Amphotericin B was not effective, since neither the dorso-plantar nor the lateral diameters differed statistically from the lesions of the control group (P>0.05).

Data set [8] concerns Leishmania promastigotes. The data set is described as follows: In vitro activity against Leishmania promastigotes (three species). Type of data set: cell-based. As for the experimental part: as §1
Data set [9] concerns L. m. amazonensis. The data set is described as follows: Experimental cutaneous leishmaniosis, early stage lesions treated every 12 h. Type of data set: in vivo, Balb/c mice. The settings on record: i.p. every 12 h. As for the experimental part:
as §2
The experiment was essentially carried out in a similar way as the one described above. However, 2-bromo-5-(2-bromo-2-nitrovinyl,-furan was administered at a dose of 2 mg/Kg and 2-bromo-5-(2-methyl-2-nitrovinyl)-furan at 100 mg/Kg. Treatments were administered by intraperitoneal route, but every 12 h instead of 24 h.

The mark [10] stands for this setting: mouse, in vivo, ip, read-out: LD50.

Converted amounts (≈) assume the structure as drawn. “And” between values parts separate entries of the source, which are not always exact repeats. Equal entries are not always repeated. Where two headings read alike, the source gives them in different places.

Here are results for eight compounds from patent publication US20090042978A1, “Pharmaceutical Compositions Containing Nitrovinylfuran Derivatives for the Treatment of Leishmaniosis and Trypanosomosis” (CENTRO DE BIOACTIVOS QUIMICOS, priority 2005, published 2009).

Regarding `O=[N+]([O-])C=Cc1ccco1` [A, 2-(2-nitrovinyl)-furan], the IC50 was 0.66 µg/mL (≈ 4.74 µM) in data set [1]; 0.2 µg/mL (≈ 1.44 µM) in data set [2]; 0.35 µg/mL (≈ 2.52 µM) in data set [3]; 1.8 µg/mL and 12.6 µM in data set [4]. Also, the CP100 in data set [1] was 1.12; in [2] it was 1.29; in data set [3], 1.75; in data set [4] it was 10.0 μg/mL and 71.9 μM. In addition, the MTD at 14 days in data set [5] (mouse, in vivo, ip) turned out to be 55 mg/kg. The LD0 in data set [5] was 50 mg/kg. For the same compound, in data set [5] (setting [10]), the LD50 – broadly, the dose expected to kill half of the subjects tested – amounted to 68 mg/kg.

Take `C[C@@H]1[C@H](O)[C@@H](C)/C=C/C=C/C=C/C=C/C=C/C=C/C=C/[C@H](O[C@@H]2O[C@H](C)[C@@H](O)[C@H](N)[C@@H]2O)C[C@@H]2O[C@](O)(C[C@@H](O)C[C@@H](O)[C@H](O)CC[C@@H](O)C[C@@H](O)CC(=O)O[C@H]1C)C[C@H](O)[C@H]2C(=O)O` [Amphotericin B, reference compound]: the CP100 in [1] is 0.051. The compound also showed a CP100 in data set [2] of 0.028. In [3], the CP100 is 0.016. Also, in [5], the LD0 was 15 mg/kg and the LD50 came out at 22 mg/kg. Further, the “lesion evolution versus controls” value in data set [6] (during and after 14 days treatment, Amphotericin B 1 mg/Kg, D 5 mg/Kg) is given as “evolved similarly to controls”. Also, in data set [6] (first week after discontinuation of treatment, 1 mg/Kg), the “lesion growth rate after discontinuation” value is “remarkable decrease of lesion growth rate”. In data set [7] (by the end of treatment), the “dorso-plantar diameter versus control” value is listed as “incremented their lesion dorso-plantar diameters as controls” and the “lateral diameter versus control” value was “the change was not different”. For the same compound, the “effectiveness on chronic lesions” value in data set [7] is recorded as “not effective”. Also, the “activity relative to the β-nitrovinylfuran derivatives” value in data set [8] is recorded as “more active than the β-nitrovinylfuran derivatives”.

On to `O=[N+]([O-])C=Cc1ccc(Br)o1` [B, 2-bromo-5-(2-nitrovinyl)-furan], for which the IC50 is 0.45 µg/mL (≈ 2.06 µM) in data set [1]; 0.18 µg/mL (≈ 0.826 µM) in [2]; 0.23 µg/mL (≈ 1.06 µM) in data set [3]; 1.2 µg/mL and 5.7 µM in [4]. Besides, the CP100 was 2.08 in [1]; 0.61 in data set [2]; 0.51 in data set [3]; 3.3 μg/mL and 15.3 μM in data set [4]. Also, the MTD at 14 days in [5] (mouse, in vivo, ip) is 20 mg/kg. Also, in [5], the LD0 was 45 mg/kg. For the same compound, the LD50 in data set [5] (setting [10]) came to 73 mg/kg.

For the compound `O=C(Cn1ccnc1[N+](=O)[O-])NCc1ccccc1` [Benznidazole, reference compound], in [4], the IC50 was 0.9 µg/mL and 3.3 µM; the CP100 was >40 μg/mL and >154 μM.

Consider `O=[N+]([O-])C(Br)=Cc1ccco1` [Compound C, 2-(2-bromo-2-nitrovinyl)-furan], for which the IC50 was 0.63 µg/mL (≈ 2.89 µM) in data set [1]; 0.25 µg/mL (≈ 1.15 µM) in data set [2]; 0.36 µg/mL (≈ 1.65 µM) in data set [3]; 3.7 µg/mL and 16.9 µM in [4]. Besides, the CP100 in data set [1] is 1.77; in [2], 1.25; in data set [3] it was 2.01; in data set [4], 10.0 μg/mL and 45.9 μM. In addition, the LD0 in data set [5] is 35 mg/kg. Also, the LD50 in data set [5] (setting [10]) turned out to be 51 mg/kg.

Turning to `CC(=Cc1ccco1)[N+](=O)[O-]` [E, 2-(2-methyl-2-nitrovinyl)-furan], the IC50 is 0.34 µg/mL (≈ 2.22 µM) in data set [1]; 0.35 µg/mL (≈ 2.29 µM) in [2]; 0.31 µg/mL (≈ 2.02 µM) in data set [3]; 4.7 µg/mL and 31 µM in [4]. The CP100 in data set [1] was 3.49; in [2], 4.84; in [3] it was 1.27; in data set [4], 30.0 μg/mL and 196.1 μM. The MTD at 14 days in [5] (mouse, in vivo, ip) stood at 60 mg/kg. Further, in data set [5], the LD0 was 65 mg/kg. For the same compound, in data set [5] (setting [10]), the LD50 came out at 80 mg/kg.

For `CC(=Cc1ccc(Br)o1)[N+](=O)[O-]` [F, 2-bromo-5-(2-methyl-2-nitrovinyl)-furan], the IC50 in [1] was 0.2 µg/mL (≈ 0.862 µM); in data set [2] it was 0.24 µg/mL (≈ 1.03 µM); in data set [3], 0.2 µg/mL (≈ 0.862 µM); in [4], 5.3 µg/mL and 23 µM. For the same compound, the CP100 in data set [1] is 1.42; in data set [2], 1.32; in [3] it was 0.62; in [4], 30.0 μg/mL and 129.3 μM. Also, in [5] (mouse, in vivo, ip), the MTD at 14 days turned out to be 100 mg/kg. In data set [5], the LD0 is 200 mg/kg. The median lethal dose (LD50) in data set [5] (setting [10]) was 246 mg/kg. For the same compound, the lesion size change entry in data set [6] (first week of treatment, 50 mg/Kg i.p. daily) is given as “small decrease in lesion size”. For the same compound, the lesion growth result in data set [6] (first week of treatment, i.p. daily, D 5 mg/Kg, F 50 mg/Kg) is reported as “minimal lesion growth”. In data set [9], the “activity compared with Amphotericin B” value is listed as “higher activity than Amphotericin B”. Moreover, the lesion growth rate result in [9] (D 2 mg/Kg, F 100 mg/Kg) is “significantly lower compared to controls”. Also, the lesion size result in data set [7] (by the end of treatment (14 days)) is reported as “ineffective”. Moreover, the “effectiveness on chronic lesions” value in data set [7] is given as “did not prove to be effective”.

“meglumine antimoniate [Glucantime ®, reference compound]”: the CP100 in data set [1], in data set [2] and in data set [3] was greater than 4250 throughout. In addition, the “activity relative to the β-nitrovinylfuran derivatives” value in data set [8] was “significantly less active”.
